Results taken from patent publication US20240066006A1, “Antiviral Compounds and Applications Thereof” (priority 2020, published 2024).
Read-outs that look alike come from different tables or passages of the source.

Key:
[1] = test system: MHV-1; assay: Viral titer by plaque assay, DBT cells infected with MHV-1; type: cell-based, murine hepatitis virus
[2] = test system: MHV-1; assay: Syncytium formation in DBT cells infected with MHV-1 (microscopy images); type: cell-based, murine hepatitis virus; details: for inhibitory effect on syncytium formation and cell-cell fusion / inhibitory effect on syncytium formation and fusion: DBT cells pre-treated three hours, 893 10 μM, images at 48 hours; for inhibitory effect on syncytium formation and cell-cell fusion: NAV2729 5 μM, SecinH3 30 μM; for inhibitory effect on syncytium formation and fusion: YM201636 400 nM, apilimod 50 nM; for syncytium formation induced by MHV-1: DBT cells, 4 μM
[3] = test system: MHV-1; assay: MHV-1 intranasal infection of male A/J mice, lung viral titer and lung weight; details: 120 mg/kg by gavage 6 hours prior to and 18 hours after infection, 500 pfu MHV-1 intranasally, 24 hours post-infection
[4] = test system: endolysosomal trafficking; assay: Inhibition of endolysosomal trafficking in vitro; type: cell-based
[5] = Pharmacokinetics and tissue levels upon oral administration
[6] = test system: MHV-A59; type: cell-based, murine hepatitis virus; details: DBT cells, MOI 0.1, plaque assay at 24 or 48 hours
[7] = test system: ACE2 receptor; type: cell-based; details: pre-treated VeroE6 cells
[8] = in vivo; details: po
[9] = Serum protein binding; type: in vitro ADME
[10] = in vivo
[11] = test system: MHV-A59; assay: Syncytium formation in DBT cells infected with MHV-A59 (phase contrast microscopy); type: cell-based, murine hepatitis virus; details: 4 μM, MOI 0.1, 24 hours post infection
Procedure: To determine whether PP2A activation mitigates syncytium formation induced by coronaviruses, DBT cells were treated with 4 μM of compound 893 before or after infection with MHV-A59 at a multiplicity of infection (MOI) of 0.1 and then assessed for syncytium formation via phase contrast microscopy 24 hours post infection.

[12] = Resistance to metabolism
[13] = DBT cells pre-treated three hours, 893 10 μM, NAV2729 5 μM, SecinH3 30 μM, plaque assay 48 hours post infection
[14] = after viral infection (post-treatment)

Molecule: OCCN1CCN(CCCN2c3ccccc3Sc3ccc(Cl)cc32)CC1 [PPZ, perphenazine, reference compound]
- reduction of viral titers of MHV-1 ([1]; DBT cells, pretreatment with PP2A agonist): to a degree similar to that of compound 893
- syncytium formation and fusion ([2]; DBT cells infected with MHV-1, pretreatment with PP2A agonist): as efficiently as compound 893

Molecule: COc1nc(-c2ccc3c(c2)OCO3)n(-c2ccc(NC(=O)CSc3ccccc3)cc2)n1 [SecinH3, reference compound]
- reduction of viral titers of MHV-1 [1, 13]: about 1 log
- inhibitory effect on syncytium formation and cell-cell fusion [2]: inhibitory effect

Molecule: Nc1ccc(C(=O)Nc2cccc(-c3nc(N4CCOCC4)c4oc5ncccc5c4n3)c2)cn1 [YM201636]
- inhibitory effect on syncytium formation and fusion [2]: inhibitory effect

Molecule: Cc1cccc(/C=N/Nc2cc(N3CCOCC3)nc(OCCc3ccccn3)n2)c1 [apilimod]
- inhibitory effect on syncytium formation and fusion [2]: inhibitory effect

Molecule: CCCCCCCCc1ccc([C@H]2CCN[C@@H]2CO)cc1.Cl [compound 893]
- lung weight [3]: reduced lung weight
- reduction in infectious virus within the lungs [3]: 2 log
- reduction of viral titers of MHV-1 [1, 13]: ~3 log
- reduction of viral titers of MHV-1 ([1]; DBT cells pre-treated three hours, 893 10 μM, YM201636 400 nM, apilimod 50 nM, plaque assay 48 hours post infection): ~3 logs
- reduction of viral titers of MHV-1 ([1]; DBT cells, 4-5 μM added one hour after infection, MOI 0.1, plaque assay at 24 or 48 hours): 3-4 logs
- reduction of viral titers of MHV-1 ([1]; DBT cells, 4-5 μM for three hours prior to infection, MOI 0.1, washed 1 hour after infection, plaque assay at 24 or 48 hours): 3-4 logs
- inhibitory effect on syncytium formation and cell-cell fusion [2]: inhibitory effect
- inhibitory effect on syncytium formation and fusion [2]: greater for 893 than for YM201636 or apilimod
- syncytium formation induced by MHV-1 [2, 14]: potently prevented syncytium formation
- syncytium formation induced by MHV-1 ([2]; pre-treatment): potently prevented syncytium formation
- concentration required to inhibit endolysosomal trafficking [4]: 1 to 10 µM
- total drug levels in the lungs relative to concentration required in vitro ([5]; compared with 1-10 μM required in vitro): 300 fold
- concentration at 5 days ([5]; lungs, brain, liver (many tissues), po, 120 mg/kg): > 100 µM
- reduction of viral titers of MHV-A59 ([6]; 4-5 μM added one hour after infection): 3-4 logs
- reduction of viral titers of MHV-A59 ([6]; 4-5 μM for three hours prior to infection, washed 1 hour after infection): 3-4 logs
- ACE2 receptor localization at the outer cell membrane [7]: reduction of ACE2 receptor localization at the outer cell membrane
- half-life [8]: 10.6 h
- binding by serum proteins [9]: highly bound by serum proteins
- oral bioavailability [10]: orally bioavailable
- syncytium formation induced by MHV-A59 [11, 14]: potently prevented syncytium formation
- syncytium formation induced by MHV-A59 ([11]; pre-treatment): potently prevented syncytium formation
- resistance to metabolism [12]: resistant to metabolism

Molecule: NAV2729 [reference compound]
- reduction of viral titers of MHV-1 [1, 13]: about 1 log
- inhibitory effect on syncytium formation and cell-cell fusion [2]: inhibitory effect
